The structures appear in SMILES notation.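 Five compound concentrations were applied to cells in 96-well plates for 48 hours; endpoints were derived by simple linear interpolation of the resulting dose-response curve. Here, GI50 denotes the concentration required for 50% inhibition of growth.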 The source made the active and inactive calls. Rule as the data show it: active = GI50 up to about 1.1 µM and inactive = higher. Where a SMILES comes first, the peptide text is derived from it. The star is where a group is joined. Boc = CC(C)(C)OC(=O)*

Some test systems named below: COLO 205; DU-145; EKVX; MDA-MB-231; Malme-3M; NCI-H226; NCI-H23; NCI/ADR-RES; OVCAR-8; PC-3; RXF 393; SK-MEL-28; SK-OV-3; SR; SW-620; T47D; UACC-257; UO-31; HOP-92; SK-MEL-2.
Common to all, as to test: DTP human tumour cell line panel, 48 h

As for `CC#CC(O)(C(=O)OC1CCC2CCC1N2C)C1CCCC1` (stereo not given), the GI50 in the assay with COLO 205, with DU-145, in the assay with EKVX, in the assay with MDA-MB-231, in the assay on Malme-3M and in the assay on NCI-H226 was > 100 µM (inactive) each time. For the same molecule, the GI50 in the assay with NCI-H23 was > 100 µM (inactive); in the assay on NCI/ADR-RES, > 10 µM (inactive); in the assay with OVCAR-8 it was > 100 µM (inactive); in the assay with PC-3, > 100 µM (inactive); with RXF 393 it was > 100 µM (inactive); with SK-MEL-28, > 100 µM (inactive). The GI50 in the assay with SK-OV-3, with SR, in the assay on SW-620, in the assay with T47D, in the assay with UACC-257 and in the assay on UO-31 was > 100 µM (inactive) each time.
Take `O=C(/C(=N/Nc1cn[nH]c(=O)c1Cl)c1ccccc1)c1ccccc1`: the GI50 with COLO 205 was 20.3 µM (inactive); in the assay with DU-145, 20.5 µM (inactive); in the assay on EKVX, 24 µM (inactive); in the assay on HOP-92, 24.8 µM (inactive); in the assay on MDA-MB-231 it was 24.7 µM (inactive); with Malme-3M, 52.7 µM (inactive). Besides, the GI50 is 25.3 µM (inactive) in the assay with NCI-H226; 22.4 µM (inactive) in the assay on NCI-H23; 17.5 µM (inactive) in the assay with NCI/ADR-RES; 36.1 µM (inactive) in the assay with OVCAR-8; 27.5 µM (inactive) in the assay on PC-3; 0.326 µM (active) in the assay with RXF 393. The GI50 is 45.1 µM (inactive) in the assay on SK-MEL-28; 46 µM (inactive) in the assay with SK-MEL-2; 39.5 µM (inactive) with SK-OV-3; 31.3 µM (inactive) in the assay on SW-620; 28.4 µM (inactive) in the assay with T47D; 29.2 µM (inactive) in the assay on UACC-257. Besides, in the assay on UO-31, the GI50 was 22.6 µM (inactive).
Regarding `COC(c1ccc(C(C)(C)C)cc1)(c1ccc(C(C)(C)C)cc1)c1ccc(C(C)(C)C)cc1`, the GI50 with COLO 205, in the assay with DU-145, in the assay on EKVX, in the assay on MDA-MB-231, with Malme-3M and in the assay with NCI-H226 was > 100 µM (inactive) throughout. The GI50 in the assay with NCI-H23, with NCI/ADR-RES, in the assay with OVCAR-8, with PC-3, with SK-MEL-28 and with SK-MEL-2 was > 100 µM (inactive) in each case. Also, the GI50 in the assay on SR, with SW-620, in the assay on T47D and in the assay with UO-31 was > 100 µM (inactive) throughout.
As to `COc1ccc(/C=C2\c3cc(OC)c(OC)cc3CCN2C(=O)c2ccccc2)cc1OC`, the GI50 in the assay with COLO 205 is 23.9 µM (inactive); in the assay with DU-145, 55 µM (inactive); with EKVX, 4.09 µM (inactive); in the assay on HOP-92 it was > 100 µM (inactive); with MDA-MB-231, 45.5 µM (inactive); with Malme-3M, 22.5 µM (inactive). Further, the GI50 in the assay on NCI-H226 is 37.9 µM (inactive); with NCI-H23 it was 87.5 µM (inactive); with NCI/ADR-RES, 23.7 µM (inactive); in the assay with OVCAR-8, 27.5 µM (inactive); in the assay with PC-3 it was 46.5 µM (inactive); in the assay on RXF 393 it was 35.2 µM (inactive). For the same molecule, the GI50 with SK-MEL-28 was 46.7 µM (inactive); in the assay with SK-MEL-2, 43.3 µM (inactive); with SR it was 30.8 µM (inactive); in the assay on SW-620, 34.5 µM (inactive); in the assay on T47D, 33.3 µM (inactive); with UACC-257, 86.9 µM (inactive). In addition, the GI50 in the assay on UO-31 was 35.5 µM (inactive).
Turning to `[N-]=[N+]=CC(=O)C1CCN(c2ccccc2)C1=O` (stereo not given), the GI50 in the assay with COLO 205, in the assay on DU-145, with EKVX, with MDA-MB-231, with Malme-3M and in the assay with NCI-H226 was > 10 µM (inactive) throughout. The GI50 in the assay on NCI-H23, in the assay with NCI/ADR-RES, in the assay with OVCAR-8, with PC-3, in the assay with RXF 393 and with SK-MEL-28 was > 10 µM (inactive) throughout. In addition, the GI50 in the assay with SK-MEL-2, with SK-OV-3, with SR, in the assay on SW-620, in the assay on T47D and with UACC-257 was > 10 µM (inactive) each time. Moreover, the GI50 with UO-31 was > 10 µM (inactive).
With `COc1ccc(C2=Nn3c(nnc(Cc4ccc(Cl)cc4)c3=O)SC2)cc1`, the GI50 in the assay with COLO 205 was 50.8 µM (inactive); in the assay on DU-145, 59.3 µM (inactive); in the assay with EKVX, 52.2 µM (inactive); with HOP-92, > 100 µM (inactive); in the assay on MDA-MB-231, 60.3 µM (inactive); in the assay on Malme-3M, > 100 µM (inactive). Besides, the GI50 in the assay on NCI-H226 is 94 µM (inactive); in the assay on NCI-H23, 35.4 µM (inactive); in the assay with NCI/ADR-RES, 19.8 µM (inactive); in the assay with OVCAR-8, 93.1 µM (inactive); with PC-3, 42.9 µM (inactive); in the assay on RXF 393 it was 27.7 µM (inactive). Also, the GI50 is 74.6 µM (inactive) in the assay with SK-MEL-28; 26.5 µM (inactive) with SK-MEL-2; 55.3 µM (inactive) in the assay on SK-OV-3; 47.4 µM (inactive) with SW-620; 64 µM (inactive) with T47D; 46.9 µM (inactive) with UACC-257. Besides, the GI50 in the assay with UO-31 was 52.1 µM (inactive).
Take `COc1ccc(-c2nc(N)c(C#N)c3c2CCS(=O)(=O)c2ccc(C)cc2-3)cc1OC`: the GI50 was 27.8 µM (inactive) in the assay on COLO 205; 29 µM (inactive) in the assay with DU-145; 38.5 µM (inactive) with HOP-92; 28.6 µM (inactive) in the assay with MDA-MB-231; 26.5 µM (inactive) in the assay on Malme-3M; 77.1 µM (inactive) in the assay on NCI-H226. In addition, the GI50 was 31.5 µM (inactive) in the assay with NCI-H23; 43.7 µM (inactive) in the assay on NCI/ADR-RES; 74.3 µM (inactive) with OVCAR-8; 11.9 µM (inactive) with PC-3; 55.2 µM (inactive) in the assay with SK-MEL-28; 16.2 µM (inactive) in the assay on SK-MEL-2. For the same molecule, the GI50 was 0.252 µM (active) in the assay with SR; 34.9 µM (inactive) in the assay on SW-620; 39.1 µM (inactive) with T47D; 22.6 µM (inactive) in the assay on UACC-257; 30.8 µM (inactive) with UO-31.
Consider `O=C1Oc2ccccc2C(=O)/C1=C/N1C(=O)/C(=C/c2ccc3c(c2)OCO3)SC1=S`, for which the GI50 with COLO 205 was 20.5 µM (inactive); in the assay with DU-145, 19.1 µM (inactive); in the assay on EKVX it was 28.5 µM (inactive); in the assay on MDA-MB-231, 25.1 µM (inactive); in the assay on Malme-3M it was 19.8 µM (inactive); in the assay with NCI-H226 it was 11.5 µM (inactive). In addition, the GI50 with NCI-H23 is 11.8 µM (inactive); in the assay with NCI/ADR-RES, 18.5 µM (inactive); in the assay with OVCAR-8, 17.6 µM (inactive); in the assay with PC-3, 15.8 µM (inactive); in the assay with RXF 393 it was 17.2 µM (inactive); in the assay on SK-MEL-28, 17.3 µM (inactive). Further, the GI50 in the assay with SK-MEL-2 was 17.2 µM (inactive); with SK-OV-3, 22.5 µM (inactive); in the assay with SR, 15.8 µM (inactive); in the assay with SW-620, 22.8 µM (inactive); in the assay on T47D it was 13.6 µM (inactive); with UACC-257, 24.3 µM (inactive).
On to `CCOC(=O)c1cn(-c2ccc(Cl)cc2)c(=O)n2c1nc1ccccc12`, for which the GI50 in the assay on COLO 205, in the assay on DU-145, in the assay on EKVX, in the assay on HOP-92, in the assay on MDA-MB-231 and in the assay on NCI-H226 was > 100 µM (inactive) each time. Moreover, the GI50 in the assay with NCI-H23, in the assay with NCI/ADR-RES, with OVCAR-8, in the assay on PC-3, with RXF 393 and in the assay on SK-MEL-28 was > 100 µM (inactive) throughout. For the same molecule, the GI50 with SK-MEL-2, with SR, in the assay on SW-620, in the assay with T47D, with UACC-257 and in the assay on UO-31 was > 100 µM (inactive) in each case.
For `CN(C)C(=S)N/N=C(\C(=N/NC(=S)N(C)C)c1ccccn1)c1ccccn1`, the GI50 in the assay on COLO 205 is 2.17 µM (inactive); with DU-145 it was 4.21 µM (inactive); in the assay with EKVX it was 12 µM (inactive); in the assay with HOP-92, 9.35 µM (inactive); with MDA-MB-231, 14.7 µM (inactive); in the assay with Malme-3M it was 12.9 µM (inactive). Moreover, the GI50 in the assay with NCI-H226 is 12.6 µM (inactive); with NCI-H23, 12.3 µM (inactive); with NCI/ADR-RES, 20.7 µM (inactive); with OVCAR-8, 7.14 µM (inactive); in the assay with PC-3, 4.26 µM (inactive); with RXF 393 it was 5.21 µM (inactive). Moreover, the GI50 with SK-MEL-28 was 16.4 µM (inactive); in the assay with SK-MEL-2 it was 10.7 µM (inactive); in the assay with SK-OV-3 it was 14.4 µM (inactive); in the assay with SW-620 it was 6.24 µM (inactive); with T47D, 3.21 µM (inactive); in the assay with UACC-257, 10.7 µM (inactive). Besides, in the assay on UO-31, the GI50 was 6.7 µM (inactive).
With `CC(C)(C)OC(=O)NCC(=O)NCC(=O)NCC(=O)NCC(=O)O` (Boc-GGGG-OH), the GI50 in the assay with COLO 205, in the assay on DU-145, in the assay on EKVX, with HOP-92, in the assay on MDA-MB-231 and in the assay on Malme-3M was > 100 µM (inactive) throughout. For the same molecule, the GI50 with NCI-H23, in the assay with NCI/ADR-RES, with OVCAR-8, in the assay on PC-3, in the assay on RXF 393 and in the assay on SK-MEL-28 was > 100 µM (inactive) in each case. Moreover, the GI50 in the assay with SK-OV-3, with SR, in the assay on SW-620, in the assay on T47D, in the assay on UACC-257 and in the assay with UO-31 was > 100 µM (inactive) in each case.

One may read the GI50 as the concentration giving 50% growth inhibition.
